In patent publication US20210277008A1, “IMIDAZO[1,2-B]PYRIDAZINE DERIVATIVES AS TRK INHIBITORS” (BenevolentAI Bio Limited, priority 2018, published 2021) one finds IC50 data, which are given here for seven molecules.

The term IC50 denotes the concentration at which inhibition is half-maximal.

Holding throughout (type): biochemical
One experiment deals with T1, TrkB (Homo sapiens, UniProt Q16620).
T1 construct: purchased Invitrogen
As to the kind of experiment: HTRF KinEASE kinase assay, TrkB enzyme. To be noted: recombinant Human TRK enzyme, NTRK2 1 nM, read-out: TrkB Enz (nM), Trk inhibition activity expressed as IC50. As to the method: (§1) To determine the IC50 of small molecule compounds for the Human TRK receptors, HTRF® KinEASE™ kinase kits from Cisbio were used. Assays were carried out in low volume, black 384-well plates.
(§2) Recombinant Human TRK enzymes (Invitrogen) were incubated in the presence or absence of the compound (11-point dose response with FAC as 10 μM) for 30 minutes at 23° C. Kinase reaction was started by addition of ATP to a mixture containing the enzyme (NTRK1-4 nM, NTRK2-1 nM, NTRK3-10 nM) and substrate (1 μM). Kinase reaction was allowed to carry on for 10 to 45 minutes at 23° C. after which it was stopped by addition of the detection mix (supplied by vendor) containing EDTA, TK-Ab-labelled with Eu^3+-cryptate (1:200 dilutions) and Streptavidin-XL665 (250 nM). Assay plates were incubated in this detection mix for 60 minutes at 23° C. The resulting TR-FRET signal, calculated as the fluorescence ratio at 665/620 nm, was read on an Envision and was proportional to the level of phosphorylation of the peptide in the presence or absence of the compound. The uniformity of the plates were assured with Z′ value [1-{3*(SDHPE+SDZPE)/(ZPE-HPE)}]. The percent (%) effect i.e. Inhibition of compound was calculated in comparison to the signal in the positive (HPE) and negative control (ZPE) wells within each assay plate. The endpoint value % Inhibition for the Standard compound was evaluated in each experiment as a quality control measure. IC50 was determined by plotting compound inhibition at respective dose in Graphpad prism5 using four parameter logistic curve fit.
On the technique in general: TR-FRET usually uses a lanthanide donor and a delayed reading to cut background.

Another experiment deals with T2, TrkC (Homo sapiens, UniProt Q16288).
T2 construct: purchased Invitrogen
Nature of the experiment: HTRF KinEASE kinase assay, TrkC enzyme. The conditions noted are these: recombinant Human TRK enzyme, NTRK3 10 nM, read-out: TrkC Enz (nM), Trk inhibition activity expressed as IC50. The method, then: as §1, §2

A further experiment deals with T3, TrkA (Homo sapiens, UniProt P04629).
T3 construct: purchased Invitrogen
Nature of the experiment: HTRF KinEASE kinase assay, TrkA enzyme. The conditions noted are these: recombinant Human TRK enzyme, NTRK1 4 nM, read-out: TrkA Enz (nM), Trk inhibition activity expressed as IC50. As to the method: as §1, §2

Each structure is given as a SMILES string.

T2 sequence (Q16288 32-839): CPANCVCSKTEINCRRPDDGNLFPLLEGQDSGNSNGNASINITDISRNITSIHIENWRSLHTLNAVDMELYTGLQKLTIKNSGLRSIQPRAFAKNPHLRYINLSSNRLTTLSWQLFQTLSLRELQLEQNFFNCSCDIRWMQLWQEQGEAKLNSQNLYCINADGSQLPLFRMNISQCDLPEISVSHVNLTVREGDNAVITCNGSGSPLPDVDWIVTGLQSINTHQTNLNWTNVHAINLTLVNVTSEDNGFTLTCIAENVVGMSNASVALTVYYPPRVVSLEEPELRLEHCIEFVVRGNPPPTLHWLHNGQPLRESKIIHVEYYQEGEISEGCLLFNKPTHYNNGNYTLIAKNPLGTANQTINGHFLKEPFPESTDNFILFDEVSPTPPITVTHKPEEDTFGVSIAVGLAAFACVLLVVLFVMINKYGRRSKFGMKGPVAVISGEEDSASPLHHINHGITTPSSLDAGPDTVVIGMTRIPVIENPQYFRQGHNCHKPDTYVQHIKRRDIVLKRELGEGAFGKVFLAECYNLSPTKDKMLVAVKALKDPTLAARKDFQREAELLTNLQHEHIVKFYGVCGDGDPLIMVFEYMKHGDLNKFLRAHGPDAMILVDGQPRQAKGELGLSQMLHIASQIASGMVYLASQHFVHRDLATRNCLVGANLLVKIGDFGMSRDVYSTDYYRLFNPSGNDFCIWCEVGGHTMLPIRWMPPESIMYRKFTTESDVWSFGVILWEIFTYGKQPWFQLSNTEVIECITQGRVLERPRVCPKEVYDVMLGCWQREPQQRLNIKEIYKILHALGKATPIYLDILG
T3 sequence (P04629 33-796): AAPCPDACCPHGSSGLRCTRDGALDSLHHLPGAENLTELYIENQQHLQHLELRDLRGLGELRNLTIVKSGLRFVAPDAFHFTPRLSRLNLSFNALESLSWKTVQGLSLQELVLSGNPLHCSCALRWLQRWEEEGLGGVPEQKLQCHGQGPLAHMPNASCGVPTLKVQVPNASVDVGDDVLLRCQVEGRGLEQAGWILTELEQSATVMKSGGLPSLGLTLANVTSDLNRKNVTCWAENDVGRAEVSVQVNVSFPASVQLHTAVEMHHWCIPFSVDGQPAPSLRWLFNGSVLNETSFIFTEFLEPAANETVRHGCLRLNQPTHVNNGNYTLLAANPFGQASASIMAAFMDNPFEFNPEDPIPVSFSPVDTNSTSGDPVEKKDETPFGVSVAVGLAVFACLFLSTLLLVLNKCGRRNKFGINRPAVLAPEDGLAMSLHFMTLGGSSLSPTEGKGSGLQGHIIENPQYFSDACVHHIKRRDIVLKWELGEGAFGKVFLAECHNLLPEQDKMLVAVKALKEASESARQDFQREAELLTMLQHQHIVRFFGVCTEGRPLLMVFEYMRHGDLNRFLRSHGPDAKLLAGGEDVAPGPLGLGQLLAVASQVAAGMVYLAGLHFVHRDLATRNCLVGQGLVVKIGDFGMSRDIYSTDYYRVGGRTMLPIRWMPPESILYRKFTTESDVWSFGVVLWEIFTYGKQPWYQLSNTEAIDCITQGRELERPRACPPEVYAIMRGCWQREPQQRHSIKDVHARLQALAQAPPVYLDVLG
T1 sequence (Q16620 32-822): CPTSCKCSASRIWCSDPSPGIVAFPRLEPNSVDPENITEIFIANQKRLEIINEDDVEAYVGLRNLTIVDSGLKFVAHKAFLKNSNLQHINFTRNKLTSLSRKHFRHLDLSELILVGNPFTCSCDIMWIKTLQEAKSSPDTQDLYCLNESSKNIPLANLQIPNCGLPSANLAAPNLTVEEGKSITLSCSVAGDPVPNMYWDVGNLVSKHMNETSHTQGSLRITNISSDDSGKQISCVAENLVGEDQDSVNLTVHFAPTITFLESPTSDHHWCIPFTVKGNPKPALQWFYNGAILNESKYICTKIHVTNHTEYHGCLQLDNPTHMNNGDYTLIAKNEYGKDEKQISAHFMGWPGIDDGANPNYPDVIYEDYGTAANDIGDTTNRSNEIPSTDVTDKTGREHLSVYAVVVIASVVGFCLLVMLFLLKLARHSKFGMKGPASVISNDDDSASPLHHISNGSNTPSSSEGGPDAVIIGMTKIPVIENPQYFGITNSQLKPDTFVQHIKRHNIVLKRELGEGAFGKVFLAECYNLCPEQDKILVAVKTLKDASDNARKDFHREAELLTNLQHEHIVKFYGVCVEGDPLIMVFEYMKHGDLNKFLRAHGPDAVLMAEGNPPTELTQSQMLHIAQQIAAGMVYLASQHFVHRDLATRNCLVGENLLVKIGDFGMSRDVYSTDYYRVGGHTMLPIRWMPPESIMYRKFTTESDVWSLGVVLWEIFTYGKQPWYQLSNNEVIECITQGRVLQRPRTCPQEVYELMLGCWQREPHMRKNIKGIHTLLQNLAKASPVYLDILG

For the molecule `CSc1ccc(F)cc1[C@H]1CCCN1c1ccc2ncc(/C(=N/C#N)N[C@H]3CCCOC3)n2n1` [Example 2, (Z)-N′-cyano-6-[(2R)-2-[5-fluoro-2-(methylsulfanyl)phenyl]pyrrolidin-1-yl]-N-[(3S)-oxan-3-yl]imidazo[1,2-b]pyridazine-3-carboximidamide], the IC50 on TrkB is 0.83 nM; at TrkC, 1.78 nM; on TrkA, 1.04 nM.
Consider `CCCCN/C(=N\C#N)c1cnc2ccc(N3C[C@@H](F)C[C@@H]3c3cc(F)ccc3SC)nn12` [Example 5, (Z)-N-butyl-N′-cyano-6-[(2R,4S)-4-fluoro-2-[5-fluoro-2-(methylsulfanyl)phenyl]pyrrolidin-1-yl]imidazo[1,2-b]pyridazine-3-carboximidamide], for which the results for the IC50 on TrkB, on TrkC and on TrkA were 0.41 nM, 1.61 nM and 1.1 nM, respectively.
As for `CSc1ccc(F)cc1[C@H]1CCCN1c1ccc2ncc(/C(=N/C#N)NCc3cccc(O)c3)n2n1` [Example 7, (Z)-N′-cyano-6-[(2R)-2-[5-fluoro-2-(methylsulfanyl)phenyl]pyrrolidin-1-yl]-N-[(3-hydroxyphenyl)methyl]imidazo[1,2-b]pyridazine-3-carboximidamide], the figures for the IC50 on TrkB, on TrkC and at TrkA were 1.55 nM, 3.16 nM and 1.44 nM, respectively.
For `CCN/C(=N\C#N)c1cnc2ccc(N3C[C@@H](F)C[C@@H]3c3cc(F)cc(SC)c3)nn12` [Example 3, (Z)-N′-cyano-N-ethyl-6-[(2R,4S)-4-fluoro-2-[5-fluoro-3-(methylsulfanyl)phenyl]pyrrolidin-1-yl]imidazo[1,2-b]pyridazine-3-carboximidamide] the same measures were 0.37 nM, 1.53 nM and 1.17 nM.
As for `CSc1ccc(F)cc1[C@H]1C[C@H](F)CN1c1ccc2ncc(/C(=N/C#N)NC3CCCCC3)n2n1` [Example 6, (Z)-N′-cyano-N-cyclohexyl-6-[(2R,4S)-4-fluoro-2-[5-fluoro-2-(methylsulfanyl)phenyl]pyrrolidin-1-yl]imidazo[1,2-b]pyridazine-3-carboximidamide], the IC50 was found to be 0.7 nM at TrkB, 1.91 nM on TrkC and 1.52 nM on TrkA.
In the case of `CSc1ccc(F)cc1[C@H]1CCCN1c1ccc2ncc(/C(=N/C#N)N[C@@H]3CCCOC3)n2n1` [Example 1, (Z)-N′-cyano-6-[(2R)-2-[5-fluoro-2-(methylsulfanyl)phenyl]pyrrolidin-1-yl]-N-[(3R)-oxan-3-yl]imidazo[1,2-b]pyridazine-3-carboximidamide], the IC50 is 0.88 nM on TrkB, 1.6 nM on TrkC and 0.95 nM on TrkA.
`CCN/C(=N\C#N)c1cnc2ccc(N3C[C@@H](F)C[C@@H]3c3cc(F)ccc3SC)nn12` [Example 4, (Z)-N′-cyano-N-ethyl-6-[(2R,4S)-4-fluoro-2-[5-fluoro-2-(methylsulfanyl)phenyl]pyrrolidin-1-yl]imidazo[1,2-b]pyridazine-3-carboximidamide]: the values for the IC50 at TrkB, at TrkC and on TrkA were 0.23 nM, 1 nM and 0.97 nM, respectively.
